{"source": "patent US8932610B2", "about": "“Aqueous clear solutions of fluocinolone acetonide for treatment of otic inflammation” (Laboratorios Salvat, S.A., priority 2010, dated 2015)", "key": {"[1]": {"assay": "Concentration of active ingredient before and after filtration through 0.22 μm filter", "type": "physicochemical"}, "[2]": {"settings": "cited from earlier work"}, "[3]": {"settings": "Batch 1, after filtration (0.22 μm filter)"}, "[4]": {"settings": "Batch 1, before filtration (0.22 μm filter)"}, "[5]": {"settings": "Batch 2, after filtration (0.22 μm filter)"}, "[6]": {"settings": "Batch 2, before filtration (0.22 μm filter)"}}, "note": "Where a name gives a salt, the structure may show the parent alone.", "data": [{"smiles": "CC1(C)O[C@@H]2C[C@H]3[C@@H]4C[C@H](F)C5=CC(=O)C=C[C@]5(C)[C@@]4(F)[C@@H](O)C[C@]3(C)[C@]2(C(=O)CO)O1", "note": "[Fluocinolone Acetonide]", "values": [{"measurement": "% of theoretical", "setting": "[1]; [3]", "result": 100.0, "unit": "%"}, {"measurement": "Concentration", "setting": "[1]; [3]", "result": 0.025, "unit": "%"}, {"measurement": "% of theoretical", "setting": "[1]; [4]", "result": 100.0, "unit": "%"}, {"measurement": "Concentration", "setting": "[1]; [4]", "result": 0.025, "unit": "%"}, {"measurement": "% of theoretical", "setting": "[1]; [5]", "result": 100.0, "unit": "%"}, {"measurement": "Concentration", "setting": "[1]; [5]", "result": 0.025, "unit": "%"}, {"measurement": "% of theoretical", "setting": "[1]; [6]", "result": 100.0, "unit": "%"}, {"measurement": "Concentration", "setting": "[1]; [6]", "result": 0.025, "unit": "%"}, {"measurement": "Solubility in water", "setting": "[2]", "result": "virtually insoluble in water"}]}, {"smiles": "O=C(O)c1cn(C2CC2)c2cc(N3CCNCC3)c(F)cc2c1=O", "note": "[Ciprofloxacin HCl]", "values": [{"measurement": "% of theoretical", "setting": "[1]; [3]", "result": 97.7, "unit": "%"}, {"measurement": "Concentration", "setting": "[1]; [3]", "result": 0.341, "unit": "%"}, {"measurement": "% of theoretical", "setting": "[1]; [4]", "result": 98.0, "unit": "%"}, {"measurement": "Concentration", "setting": "[1]; [4]", "result": 0.342, "unit": "%"}, {"measurement": "% of theoretical", "setting": "[1]; [5]", "result": 98.0, "unit": "%"}, {"measurement": "Concentration", "setting": "[1]; [5]", "result": 0.342, "unit": "%"}, {"measurement": "% of theoretical", "setting": "[1]; [6]", "result": 98.0, "unit": "%"}, {"measurement": "Concentration", "setting": "[1]; [6]", "result": 0.342, "unit": "%"}]}]}
